Measured values published in patent US20100324017A1, “ACYLGUANIDINE DERIVATIVE” (priority 2007, published 2010).

Columns and labels:
Type in all cases: in vivo
[1] = test system: MK-801-induced overactivity; assay: MK-801-induced overactivity in mice, kinetic momentum by infrared sensor; conditions: mouse, oral, dose 0.01 mg/kg; MK-801 0.3 mg/kg i.p.; total 60 minutes, P<0.05
Experimental: (§1) Evaluation of Various Drugs Relative to a Drug for Increasing the Kinetic Momentum of Mice (Methane Phetamine, MK-801) (Method for Measuring a Kinetic Momentum by Discharge of an Infrared Ray)
(§2) The effect of improving the positive symptoms and the negative symptoms of schizophrenia by the compound (I) was evaluated by measuring the kinetic momentum that had been […] with administration of the compound in a model causing the symptoms by methane phetamine (which is hereinafter simply referred to as MAP) and MK-801.
(§3) Species: Male ICR mouse/number of animals (number of animals per group): 8 to 12 animals per group
(§4) The animal was left in a laboratory for 1 hour or longer to be acclimated to the environment, and the animal was taken from the feeding cage, orally administered with a compound to be tested, and then returned to the feeding cage. After 30 minutes, it was put into a cage for measurement, and the kinetic momentum of just the compound to be tested was measured. Further, after 30 minutes, the animal was taken out, and intraperitoneally administered with a drug for increasing kinetic momentum (MAP; 1 mg/kg or MK-801; 0.3 mg/kg, all dissolved in physiological saline), and its kinetic momentum was measured for a certain time (60 minutes) using a device for measuring the kinetic momentum by means of an infrared ray sensor (CompACT AMS, Muromachi Kikai Co., Ltd.). Also, the test was carried out under non-fasting.
(§5) The 60 minutes of measurements was classified into three groups: a first half 30 minutes, a second half 30 minutes, and a total 60 minutes. For a normal mouse (a mouse administered with physiological saline) and a mouse administered with the drug for increasing kinetic momentum, a Student's T test was used for evaluation in each interval. For the group administered with the compound to be tested, a solvent (vehicle) group and a Dunnett's T test were carried out and evaluated. For the evaluation, in case where there was a significant (P<0.05) difference for the total 60 minutes, it was considered to be effective.

[2] = test system: PCP-induced prepulse inhibition (PPI) disorder; assay: Disorder of PCP-induced prepulse inhibition (PPI) in a rat; conditions: oral, PCP 1 mg/kg s.c., % PPI
Experimental: An Improvement Effect for a Disorder of PCP-Induced Prepulse Inhibition (PPI) in a Rat
A startle amplitude occurs in humans to which an sound stimulus has been given, but in healthy human, this startle amplitude is inhibited by the giving of a weak sound stimulus that precedes the sound stimulus. For a patient with schizophrenia, the inhibitory function similarly declined. It is known that when a rat is administered with PCP (phencyclidine), there is a symptom similar to the negative symptom of schizophrenia in humans. Using this model, the improvement effect of the compound (I) for the information processing disorder included in cognitive impairment of schizophrenia was evaluated.
Species: Male Wistar rat/number of the animals (number of animals per group): 12 animals per group
Startle amplitude measuring device for small animals: an SR-LAB ABS system (manufactured by San Diego Instruments)
An animal holder, to which a Plexiglas-made cylinder for animal storage having a diameter of 8.2 cm was attached, was positioned in the upper part of a Plexiglas-made frame in a measurement box. In the measurement box, a sound-insulating treatment and ventilation (FAN) were carried out. Sound was administered by a speaker attached to the 24 cm upper part of the cylinder. The movement of the animals in the cylinder was detected by a transducer attached in the lower part of the frame and recorded by a microcomputer via an interface.
The experiment was initiated after the animals were put into the chamber for measurement and had spent 10 minutes adapting to the measurement environment. Basically, at 35 minutes after the compound to be tested was orally administered, 1 mg/kg of PCP was subcutaneously administered (1 ml/kg). Five minutes later, the rats were put into a chamber for measurement, allowed to adapt for 10 minutes, and the measurement was then initiated. A white noise of 65 dB (for all frequencies, a disordered noise having a constant energy per unit band) used as a background noise was always played through the break periods and the sessions. The three types of trials as shown below were carried out in a random order 10 times for each type with 30 times in total. Each trial was carried out at a pseudo-random interval of 20 to 60 seconds with an average of 40 seconds. A pulse was defined as a white noise of 120 dB, 20 msec, and a prepulse was defined as a white noise of 70, 80 dB, 20 msec.
The startle amplitude of the animal was measured for 100 msec from the initiation of the pulse, and the maximum value was taken as a “maximum startle amplitude (Vmax))”. The “maximum startle amplitude” for the ten times for each of the three types of trials were averaged, and taken as a “startle amplitude (simply referred to as SA)” under the stimulation condition.
The % prepulse inhibition (% PPI) was calculated in the following equation in the PP80 & P trial of 3) above.
% Prepulse inhibition (% PPI)=(Startle amplitude at P-alone trial (SA)−Startle amplitude (SA) at a PP80 & P trial)/Startle amplitude at P alone trial×100
The measured value was expressed as an average value (mean±SE). First, the startle amplitudes (SA) were statistically analyzed. […] For the measured data of % PPI, the normal group and the control group (the group administered with PCP) were compared by a Student t-test, and for the control group and the group administered with the compound to be tested were compared using a Dunnett evaluation. […] The effect of the compound to be tested was assessed with % PPI.

[3] = test system: MAP-induced overactivity; assay: MAP (methane phetamine)-induced overactivity in mice, kinetic momentum by infrared sensor; conditions: mouse, oral, MAP 1 mg/kg i.p., total 60 minutes, P<0.05
Experimental: as §1, §2, §3, §4, §5

| Structure (SMILES) | inhibition of MK-801-induced overactivity [1] | improvement of the disorder of PCP prepulse inhibition (PPI) ([2]; dose 0.03 mg/kg) | improvement of the disorder of PCP prepulse inhibition (PPI) ([2]; dose 0.1 mg/kg) | inhibition of MAP-induced overactivity ([3]; dose 0.01 mg/kg) | improvement of the disorder of PCP prepulse inhibition (PPI) ([2]; dose 0.3 mg/kg) | inhibition of MAP-induced overactivity ([3]; dose 0.003 mg/kg) |
| --- | --- | --- | --- | --- | --- | --- |
| NC(N)=NC(=O)c1ccc2c3ccccc3n(C3CCOCC3)c2c1 [Example 25] | significantly inhibited | significantly improved | significantly improved | significantly inhibited | – | – |
| CC(C)n1c2cc(C(=O)N=C(N)N)ccc2c2c(CO)cccc21 [Example 65] | significantly inhibited | – | significantly improved | – | significantly improved | significantly inhibited |
